According to patent EP2832371B1, “APPLICATION OF GASTRODIN AS SOLUBILIZER AND METHOD FOR PREPARING INJECTION OR POWDER FOR INJECTION” (KPC Pharmaceuticals, Inc., priority 2012, dated 2013):

Assay: Dissolution of the compound together with gastrodin in the preparation tank
Format: physicochemical
Details: amounts per formula of the example; with gastrodin in water for injection kept at 80 °C, vacuum, nitrogen gas
Experimental: heating water for injection to 80-98 °C, followed by stirring under vacuum conditions at 30-80 °C, and then adding the reactant under the protection of nitrogen gas or argon gas to obtain a solution of the reactant.
60% of the total amount of water for injection for preparation was added into a preparation tank, heated to 95 °C with slight boiling, and kept at 80 °C. The vacuum was initiated while stirring for 10 minutes, followed by bringing breviscapine along with gastrodin and sodium carbonate weighed according to the amounts in the formula by nitrogen gas into the preparation tank. […] Next, it is sterile-filtered, sterile-filled and freeze-dried by a conventional process to obtain the freeze-dried powder for injection.

| Molecule | time in which the compound dissolved in the preparation tank |
| --- | --- |
| OC[C@H]1O[C@@H](Oc2cc(/C=C/c3cc(O)cc(O)c3)ccc2O)[C@H](O)[C@@H](O)[C@@H]1O | about 5 minutes |
| CC(=O)Cc1cc(=O)c2c(C)cc(O)c([C@@H]3O[C@H](CO)[C@@H](O)[C@H](O)[C@H]3O)c2o1 [Aloesin] | about 5 minutes |
| O=c1cc(-c2ccccc2)oc2cc(O)c(O)c(O)c12 [Baicalein] | about 5 minutes |
| O=C(O)[C@H]1O[C@@H](Oc2cc3oc(-c4ccccc4)cc(=O)c3c(O)c2O)[C@H](O)[C@@H](O)[C@@H]1O [Baicalin] | about 5 minutes |
| O=C1c2c(O)cccc2C([C@@H]2O[C@H](CO)[C@@H](O)[C@H](O)[C@H]2O)c2cc(CO)cc(O)c21 (some centres unmarked) [Barbaloin] | about 5 minutes |
| COc1c(O)cc2c(c1O)[C@@H]1O[C@H](CO)[C@@H](O)[C@H](O)[C@H]1OC2=O [Bergenin] | about 5 minutes |
| O=c1c(-c2ccc(O)cc2)coc2cc(O[C@@H]3O[C@H](CO)[C@@H](O)[C@H](O)[C@H]3O)ccc12 [Daidzin] | about 5 minutes |
| Breviscapine | about 5 minutes |
| Taxinine | about 5 minutes |

Continued, values first:

| time in which the compound dissolved in the preparation tank | Molecule |
| --- | --- |
| about 5 minutes | O=c1c(-c2ccc(O)cc2)coc2cc(O)ccc12 [Daidzein] |
| about 5 minutes | COc1ccc(/C=C/c2cc(O)cc(O[C@@H]3O[C@H](CO)[C@@H](O)[C@H](O)[C@H]3O)c2)cc1 [Deoxyrhapontin] |
| about 5 minutes | O=C1CC(c2ccccc2)Oc2cc(O)c(O)c(O)c21 (centres unmarked) [Dihydrobaicalein] |
| about 5 minutes | COc1ccc([C@@H]2CC(=O)c3c(O)cc(O)cc3O2)cc1O [Hesperetin] |
| about 5 minutes | O=c1cc(-c2ccc(O)c(O)c2)oc2cc(O)c([C@@H]3O[C@H](CO)[C@@H](O)[C@H](O)[C@H]3O)c(O)c12 [Homoorientin] |
| about 5 minutes | COc1ccc(-c2oc3cc(O)cc(O)c3c(=O)c2O)cc1 [Kaempferide] |
| about 5 minutes | Oc1ccc2c(c1)OC[C@H]1c3cc4c(cc3O[C@@H]21)OCO4 [Maackiain] |
| about 5 minutes | O=C1C[C@@H](c2ccc(O)cc2)Oc2cc(O)cc(O)c21 [Naringenin] |
| about 5 minutes | OC[C@H]1O[C@@H](Oc2cc(O)cc(/C=C/c3ccc(O)cc3)c2)[C@H](O)[C@@H](O)[C@@H]1O [Polydatin] |
| about 5 minutes | O=c1c(-c2ccc(O)cc2)coc2c([C@@H]3O[C@H](CO)[C@@H](O)[C@H](O)[C@H]3O)c(O)ccc12 [Puerarin] |
| about 5 minutes | O=c1c(O)c(-c2ccc(O)c(O)c2)oc2cc(O)cc(O)c12 [Quercetin] |
| about 5 minutes | Oc1ccc(C=Cc2cc(O)cc(O)c2)cc1 [Resveratrol] |
| about 5 minutes | COc1ccc(/C=C/c2cc(O)cc(O[C@@H]3O[C@H](CO)[C@@H](O)[C@H](O)[C@H]3O)c2)cc1O [Rhapontin] |

Assay: Maximum tolerance dose of gastrodin calculated from intramuscular and intravenous injection in animals
Format: in vivo, human
Details: calculated at 60 kg from maximum tolerance dose of intramuscular and intravenous injection for animals
Experimental: Gastrodin is a white crystalline powder, odorless, bitter taste; melting point: 153 °C~156 °C; easily soluble in water or methanol and soluble in ethanol. Gastrodin has sedative, hypnotic and analgesic effects, and has low toxicity. It can be calculated from the maximum tolerance dose of intramuscular injection and intravenous injection for animals that the maximum tolerance dose for human is 33.249 g of gastrodin (calculated at 60 kg).

| Molecule | maximum tolerance dose for human [g] |
| --- | --- |
| OCc1ccc(O[C@@H]2O[C@H](CO)[C@@H](O)[C@H](O)[C@H]2O)cc1 [Gastrodin, 4-hydroxymethylphenyl-β-D-glucopyranoside hemihydrate] | 33.249 |
